{"source": "patent EP4755393A1", "about": "“USE OF PROTON PUMP REGULATOR IN PREPARATION OF DRUG” (Shanghai Quietd Biotechnology Co., Ltd., priority 2023, dated 2025)", "tested_on": "homozygous DIR-Ki mice", "assay": "Novel object recognition test in DIR-Ki mice", "format": "in vivo", "details": "intravenous, 7 consecutive days, FIG. 15", "experimental": "Thirty homozygous DIR-Ki mice were divided into three groups: the control group (HO+PBS), the QD202 1 mg/kg group (HO+QD202 1 mpk), and the QD202 5 mg/kg group (HO+QD202 5 mpk). After 7 consecutive days of intravenous administration in the QD202-treated groups, the novel object recognition test was initiated.\nSquare PVC plastic box (dimensions: 25 cm × 25 cm × 30 cm), two identical size 1 batteries, one plastic toy of the same height as the batteries, experimental observation box, camera, and video recording software\nOn the day of the experiment, the mice were allowed to acclimatize to the experimental room for 30 min in advance. The test was divided into an acclimation period and a testing period.\nFamiliarization phase: Two identical batteries were placed 5 cm away from a box wall, with a 5 cm gap between the two batteries. The mice were placed in the center of the area and allowed to explore freely for 10 min. […]\nTesting period: A toy with size and height similar to those of the battery was randomly used to replace one battery and placed in the same position as the original battery. […] The entire process was recorded using a camera. […] After the experiment, the time taken for the mice to explore novel and familiar objects in the video was counted manually, and the time recognition index of the novel objects was calculated. […]", "note": "Ends that are not written are not given here."}
{"substance": "QD202: Polypeptide synthesized according to the amino acid sequence set forth in SEQ ID NO: 1; ATP6V1B2 regulator / DIR regulator (YGRKKRRQRRRSPVDVVCS; not fully specified)", "values": [{"measurement": "novel object recognition index", "setting": "1.0 mg/kg", "result": "significantly improved"}, {"measurement": "novel object recognition index", "setting": "5.0 mg/kg", "result": "significantly improved"}]}
